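Protocol summary: plate cells (96-well), add compound at 5 concentrations, incubate 48 h, interpolate endpoints linearly. GI50 is the concentration that inhibits growth by half.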 The source made the active and inactive calls. No stated cut-off is given here; in the data, active = GI50 up to about 1.1 µM and inactive = higher.
Columns and labels:
Experiment in all cases: NCI-60 cell line screen, 48 h
[1] = system: Malme-3M
[2] = system: NCI/ADR-RES
[3] = system: RPMI-8226
[4] = system: UACC-62
[5] = system: TK-10
[6] = system: A549
[7] = system: KM12
[8] = system: OVCAR-4
[9] = system: HCT-116
[10] = system: SK-OV-3
[11] = system: NCI-H522
[12] = system: MCF7
[13] = system: HT-29
[14] = system: BT-549
[15] = system: U-251
[16] = system: ACHN
[17] = system: COLO 205
[18] = system: K562
[19] = system: SF-268
[20] = system: HCC 2998

| SMILES | GI50 [1] | GI50 [2] | GI50 [3] | GI50 [4] | GI50 [5] | GI50 [6] | GI50 [7] | GI50 [8] | GI50 [9] | GI50 [10] | GI50 [11] | GI50 [12] | GI50 [13] | GI50 [14] | GI50 [15] | GI50 [16] | GI50 [17] | GI50 [18] | GI50 [19] | GI50 [20] |
| --- | --- | --- | --- | --- | --- | --- | --- | --- | --- | --- | --- | --- | --- | --- | --- | --- | --- | --- | --- | --- |
| CCN(CC)CC[n+]1ccc2c(C)c3[nH]c4ccc(O)cc4c3c(C)c2c1 | 5.83 µM (inactive) | 14.6 µM (inactive) | 7.31 µM (inactive) | 6.56 µM (inactive) | 28.3 µM (inactive) | 1.35 µM (inactive) | 4.31 µM (inactive) | 3.85 µM (inactive) | 6.47 µM (inactive) | 10.4 µM (inactive) | 1.96 µM (inactive) | 2 µM (inactive) | 8.45 µM (inactive) | 12.7 µM (inactive) | 1.33 µM (inactive) | 2.64 µM (inactive) | 3.18 µM (inactive) | 4.06 µM (inactive) | 1.12 µM (active) | 6.15 µM (inactive) |
| CCCCCCCCCCCCCCCC(=O)OCC1CCCN2CCCCC12 (stereo not given) | > 100 µM (inactive) | > 100 µM (inactive) | > 100 µM (inactive) | > 100 µM (inactive) | > 100 µM (inactive) | > 100 µM (inactive) | > 100 µM (inactive) | > 100 µM (inactive) | > 100 µM (inactive) | > 100 µM (inactive) | – | > 100 µM (inactive) | > 100 µM (inactive) | > 100 µM (inactive) | > 100 µM (inactive) | > 100 µM (inactive) | > 100 µM (inactive) | > 100 µM (inactive) | > 100 µM (inactive) | > 100 µM (inactive) |
| O=C(Oc1ccc2c(c1)CN(Cc1ccccc1)CO2)c1ccccc1 | 18.9 µM (inactive) | 23.4 µM (inactive) | 20.6 µM (inactive) | 16.8 µM (inactive) | 16.2 µM (inactive) | 19.8 µM (inactive) | 20.7 µM (inactive) | 15.7 µM (inactive) | 16 µM (inactive) | 16.6 µM (inactive) | 7.06 µM (inactive) | 16.9 µM (inactive) | 18.5 µM (inactive) | 18.5 µM (inactive) | 17.3 µM (inactive) | 18.8 µM (inactive) | 16.9 µM (inactive) | 17.6 µM (inactive) | 17.3 µM (inactive) | 14.5 µM (inactive) |
| COc1ccc(-c2cc3cc(Cl)cc(Cl)c3oc2=O)cc1OC | 59.8 µM (inactive) | 56.9 µM (inactive) | 63.5 µM (inactive) | 63.2 µM (inactive) | 44.9 µM (inactive) | 92.3 µM (inactive) | 31.6 µM (inactive) | 32.8 µM (inactive) | 31.6 µM (inactive) | 74.8 µM (inactive) | 36.1 µM (inactive) | 59.3 µM (inactive) | 55.2 µM (inactive) | 57.3 µM (inactive) | 37.2 µM (inactive) | 37.7 µM (inactive) | > 100 µM (inactive) | 33.3 µM (inactive) | 43.6 µM (inactive) | 44.7 µM (inactive) |
| Cc1ccc(-n2nncc2[Si](C)(C)C)s1 | > 100 µM (inactive) | > 100 µM (inactive) | > 100 µM (inactive) | > 100 µM (inactive) | > 100 µM (inactive) | > 100 µM (inactive) | – | > 100 µM (inactive) | > 100 µM (inactive) | > 100 µM (inactive) | > 100 µM (inactive) | > 100 µM (inactive) | > 100 µM (inactive) | > 100 µM (inactive) | > 100 µM (inactive) | > 100 µM (inactive) | > 100 µM (inactive) | > 100 µM (inactive) | > 100 µM (inactive) | > 100 µM (inactive) |
| c1ccc(C2=NC3OC2c2ccccc23)cc1 (stereo not given) | > 10 µM (inactive) | > 10 µM (inactive) | > 10 µM (inactive) | > 10 µM (inactive) | > 10 µM (inactive) | > 10 µM (inactive) | > 10 µM (inactive) | > 10 µM (inactive) | > 10 µM (inactive) | > 10 µM (inactive) | > 10 µM (inactive) | 3.15 µM (inactive) | > 10 µM (inactive) | > 10 µM (inactive) | > 10 µM (inactive) | > 10 µM (inactive) | > 10 µM (inactive) | > 10 µM (inactive) | > 10 µM (inactive) | > 10 µM (inactive) |
| CCCCc1ccc(NC(=N)N)cc1 | 38.8 µM (inactive) | 29.9 µM (inactive) | 17 µM (inactive) | 37.3 µM (inactive) | 22.1 µM (inactive) | 41.5 µM (inactive) | 18.9 µM (inactive) | 25.4 µM (inactive) | 24.9 µM (inactive) | 41.5 µM (inactive) | 28.1 µM (inactive) | 19.7 µM (inactive) | 25.8 µM (inactive) | 24.8 µM (inactive) | 85.3 µM (inactive) | 36.7 µM (inactive) | 19 µM (inactive) | 12.6 µM (inactive) | 40.2 µM (inactive) | 16.3 µM (inactive) |
| COC(=O)N/N=C(\c1ccccc1)c1ccc(OC)cc1 | > 100 µM (inactive) | > 100 µM (inactive) | > 100 µM (inactive) | > 100 µM (inactive) | > 100 µM (inactive) | > 100 µM (inactive) | > 100 µM (inactive) | > 100 µM (inactive) | > 100 µM (inactive) | > 100 µM (inactive) | > 100 µM (inactive) | > 100 µM (inactive) | > 100 µM (inactive) | > 100 µM (inactive) | > 100 µM (inactive) | – | > 100 µM (inactive) | > 100 µM (inactive) | > 100 µM (inactive) | > 100 µM (inactive) |
| COc1ccc(OC2OC(CO)C(O)C(O)C2O)cc1 (stereo not given) | > 100 µM (inactive) | > 100 µM (inactive) | > 100 µM (inactive) | > 100 µM (inactive) | > 100 µM (inactive) | > 100 µM (inactive) | > 100 µM (inactive) | – | > 100 µM (inactive) | > 100 µM (inactive) | > 100 µM (inactive) | > 100 µM (inactive) | > 100 µM (inactive) | > 100 µM (inactive) | > 100 µM (inactive) | > 100 µM (inactive) | > 100 µM (inactive) | > 100 µM (inactive) | > 100 µM (inactive) | > 100 µM (inactive) |
| CC1(C)[N+]([O-])=[N+]([O-])C1(C)O (stereo not given) | > 100 µM (inactive) | > 100 µM (inactive) | > 100 µM (inactive) | > 100 µM (inactive) | > 100 µM (inactive) | > 100 µM (inactive) | > 100 µM (inactive) | > 100 µM (inactive) | > 100 µM (inactive) | > 100 µM (inactive) | > 100 µM (inactive) | > 100 µM (inactive) | > 100 µM (inactive) | > 100 µM (inactive) | > 100 µM (inactive) | – | > 100 µM (inactive) | > 100 µM (inactive) | > 100 µM (inactive) | > 100 µM (inactive) |
| CCN(CC)CC1CCCCN1CC(=O)N1c2ccccc2NC(=O)CC1C (stereo not given) | > 100 µM (inactive) | > 100 µM (inactive) | > 100 µM (inactive) | – | > 100 µM (inactive) | > 100 µM (inactive) | > 100 µM (inactive) | > 100 µM (inactive) | > 100 µM (inactive) | > 100 µM (inactive) | > 100 µM (inactive) | > 100 µM (inactive) | > 100 µM (inactive) | > 100 µM (inactive) | > 100 µM (inactive) | > 100 µM (inactive) | > 100 µM (inactive) | > 100 µM (inactive) | > 100 µM (inactive) | > 100 µM (inactive) |
| CCCCCCCC/C=C(\Br)C(O)C(Br)Br (stereo not given) | 21.1 µM (inactive) | 26.2 µM (inactive) | 42.7 µM (inactive) | 19.3 µM (inactive) | 39.4 µM (inactive) | 31.4 µM (inactive) | 19.1 µM (inactive) | 20.6 µM (inactive) | 27.2 µM (inactive) | 26.6 µM (inactive) | 19.1 µM (inactive) | 25.5 µM (inactive) | – | 22.4 µM (inactive) | 30 µM (inactive) | 22.3 µM (inactive) | 18.9 µM (inactive) | 69.7 µM (inactive) | 23.2 µM (inactive) | 18.8 µM (inactive) |
| NC(Cc1ccccc1)C(=O)OCN1C(=O)C2C3C=CC(C2C1=O)C1C(=O)N(COC(=O)C(N)Cc2ccccc2)C(=O)C31 (stereo not given) | 17.2 µM (inactive) | > 100 µM (inactive) | 23.2 µM (inactive) | 38.8 µM (inactive) | > 100 µM (inactive) | > 100 µM (inactive) | – | – | 42.5 µM (inactive) | – | > 100 µM (inactive) | 17.5 µM (inactive) | 18.4 µM (inactive) | > 100 µM (inactive) | > 100 µM (inactive) | > 100 µM (inactive) | 75.9 µM (inactive) | 28.5 µM (inactive) | > 100 µM (inactive) | > 100 µM (inactive) |
| CN(C)Cc1cc(C(=O)/C=C/c2ccc(Cl)cc2)cc(CN(C)C)c1O | 11.7 µM (inactive) | 15.8 µM (inactive) | 7.89 µM (inactive) | – | 18.4 µM (inactive) | 8.73 µM (inactive) | 4.17 µM (inactive) | – | 12.9 µM (inactive) | – | 3.24 µM (inactive) | 14.4 µM (inactive) | 5.6 µM (inactive) | 3.7 µM (inactive) | 13.4 µM (inactive) | 4.04 µM (inactive) | 4.27 µM (inactive) | 5.41 µM (inactive) | 18.2 µM (inactive) | 18.7 µM (inactive) |
| COc1cccc(/C=N/n2c(C)n[nH]c2=O)c1 | > 100 µM (inactive) | > 100 µM (inactive) | > 100 µM (inactive) | 69.3 µM (inactive) | – | > 100 µM (inactive) | > 100 µM (inactive) | > 100 µM (inactive) | > 100 µM (inactive) | > 100 µM (inactive) | – | > 100 µM (inactive) | > 100 µM (inactive) | 92.9 µM (inactive) | > 100 µM (inactive) | > 100 µM (inactive) | > 100 µM (inactive) | > 100 µM (inactive) | > 100 µM (inactive) | > 100 µM (inactive) |

From ChEMBL document CHEMBL1201862, “PubChem BioAssay data set” (2004)
